Like-named read-outs stand apart in the source and are kept apart here.
Tests used:
[1] = therapeutic maximal blood concentration, ref product labeling, cited from earlier work
[2] = system: isolated rat liver mitochondria; assay: Mitochondrial oxygen consumption (glutamate/malate or succinate driven, state 4 and state 3); format: biochemical; details: DMSO treated samples set as 1; for State 3 respiration driven by succinate at 10XCmax: key: 0 indicates that the drug had no effects (negative); for State 3 respiration driven by succinate at 1XCmax: key: 0 indicates that the drug had no effects (negative)
Procedure, shortened: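 Rat liver mitochondria (1 mg/ml protein) exposed 5 min to kinase inhibitors in 0.1% DMSO, then O2 consumption measured by Clark-type electrode with glutamate/malate or succinate (state 4), ADP added after 3 min (state 3). Rates normalized to 0.1% DMSO controls set to 1.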

[3] = system: isolated rat liver mitochondria; assay: Mitochondrial ROS production (CM-H2DCFDA); details: DMSO treated samples set as 1
[4] = system: RCC III; assay: RCC III activity in submitochondrial particles; format: biochemical, rat; design: key to RCC III at 100XCmax: activity relative to DMSO-treated controls (control set as 1 = 100%); details: 100XCmax; relative to DMSO treated samples
Procedure, shortened: (§1)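 Kinase inhibitors were preincubated 15 min with submitochondrial particles (1 mg/ml) before complex activities were measured. RCC I was the rotenone-sensitive portion (activity without minus with rotenone). RCC I/V was read at 340 nm and RCC II at 600 nm every 1 min for 6 min. RCC III and IV were read at 550 nm every 10 s for 2 min. Activities are normalized to DMSO controls set as 1.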

[5] = system: isolated rat liver mitochondria; assay: Mitochondrial swelling (absorbance at 535 nm); format: biochemical; details: difference in signal between KI and DMSO treated samples at the end of experiments; for Swelling 5XCmax: key: 0 indicates that the drug had no effects (negative)
[6] = system: RCC IV; assay: RCC IV activity in submitochondrial particles; format: biochemical, rat; design: key to RCC IV at 50XCmax / RCC IV at 100XCmax: activity relative to DMSO-treated controls (control set as 1 = 100%); details: 50XCmax; relative to DMSO treated samples; in %
Procedure, shortened: as §1

[7] = system: isolated rat liver mitochondria; details: positive control alamethicin treated samples
[8] = cited from earlier work
[9] = system: isolated rat liver mitochondria; assay: Mitochondrial inner membrane potential (MMP), Rhodamine 123; format: biochemical; details: difference in signal between KI and DMSO treated samples at the end of experiments
From the text: Fig. 3 KI effects on mitochondrial inner membrane potential (MMP). […] In a, c, data are means and standard derivations from three separate experiments. *p < 0.05 as compared to DMSO-treated samples at the end of experiments. In b, data are means of two independent experiments

## CCN(CC)CCNC(=O)c1c(C)[nH]c(/C=C2\C(=O)Nc3ccc(F)cc32)c1C [sunitinib malate]
[1]; read-out: Cmax at µM
  Cmax: 0.12 µM
[1]
  Cmax: 61.9 ng/mL
[2]; 1XCmax
  State 3 respiration driven by glutamate/malate at 1XCmax: 0
  State 3 respiration driven by succinate at 1XCmax: 0
  State 4 respiration driven by glutamate/malate at 1XCmax: 0
  State 4 respiration driven by succinate at 1XCmax: 0
[2]; 2.5XCmax
  State 3 respiration driven by glutamate/malate at 2.5XCmax: 0
  State 3 respiration driven by succinate at 2.5XCmax: 0
  State 4 respiration driven by glutamate/malate at 2.5XCmax: 0
  State 4 respiration driven by succinate at 2.5XCmax: 0
[2]; 5XCmax
  State 3 respiration driven by glutamate/malate at 5XCmax: 0
  State 3 respiration driven by succinate at 5XCmax: 0
  State 4 respiration driven by glutamate/malate at 5XCmax: 0
  State 4 respiration driven by succinate at 5XCmax: 0
[2]; 10XCmax
  State 3 respiration driven by glutamate/malate at 10XCmax: 0
  State 3 respiration driven by succinate at 10XCmax: 0
  State 4 respiration driven by glutamate/malate at 10XCmax: 0
  State 4 respiration driven by succinate at 10XCmax: 0
[2]; 20XCmax
  State 3 respiration driven by glutamate/malate at 20XCmax: 0
  State 3 respiration driven by succinate at 20XCmax: 0
  State 4 respiration driven by glutamate/malate at 20XCmax: 0
  State 4 respiration driven by succinate at 20XCmax: 0
[2]; 30XCmax
  State 3 respiration driven by glutamate/malate at 30XCmax: 0
  State 3 respiration driven by succinate at 30XCmax: 0
  State 4 respiration driven by glutamate/malate at 30XCmax: 0
  State 4 respiration driven by succinate at 30XCmax: 0
[2]; 50XCmax
  State 3 respiration driven by glutamate/malate at 50XCmax: 0
  State 3 respiration driven by succinate at 50XCmax: 0
  State 4 respiration driven by glutamate/malate at 50XCmax: 0
  State 4 respiration driven by succinate at 50XCmax: 0
[2]; 100XCmax
  State 3 respiration driven by glutamate/malate at 100XCmax: 0
  State 3 respiration driven by succinate at 100XCmax: 0
  State 4 respiration driven by glutamate/malate at 100XCmax: 0
  State 4 respiration driven by succinate at 100XCmax: 0
[3]; 1XCmax
  ROS measured by CM-H2DCFDA at 1XCmax: 0
[3]; 2.5XCmax
  ROS measured by CM-H2DCFDA at 2.5XCmax: 0
[3]; 5XCmax
  ROS measured by CM-H2DCFDA at 5XCmax: 0
[3]; 10XCmax
  ROS measured by CM-H2DCFDA at 10XCmax: 0
[3]; 20XCmax
  ROS measured by CM-H2DCFDA at 20XCmax: 0
[3]; 30XCmax
  ROS measured by CM-H2DCFDA at 30XCmax: 0
[3]; 50XCmax
  ROS measured by CM-H2DCFDA at 50XCmax: 0
[3]; 100XCmax
  ROS measured by CM-H2DCFDA at 100XCmax: 0
[4]
  RCC III at 100XCmax: 0
[5]; 1XCmax
  Swelling 1XCmax: 0
[5]; 2.5XCmax
  Swelling 2.5XCmax: 0
[5]; 5XCmax
  Swelling 5XCmax: 0
[5]; 10XCmax
  Swelling 10XCmax: 0
[5]; 20XCmax
  Swelling 20XCmax: 0
[5]; 30XCmax
  Swelling 30XCmax: 0
[5]; 50XCmax
  Swelling 50XCmax: 0
[5]; 100XCmax
  Swelling 100XCmax: 0
[6]
  RCC IV at 50XCmax: 0
[7]; 1XCmax
  Cytochrome c release 1XCmax: 0
[7]; 2.5XCmax
  Cytochrome c release 2.5XCmax: 0
[7]; 5XCmax
  Cytochrome c release 5XCmax: 0
[7]; 10XCmax
  Cytochrome c release 10XCmax: 0
[7]; 20XCmax
  Cytochrome c release 20XCmax: 0
[7]; 30XCmax
  Cytochrome c release 30XCmax: 0
[7]; 50XCmax
  Cytochrome c release 50XCmax: 0
[7]; 100XCmax
  Cytochrome c release 100XCmax: 0
[8]; 1 = DILI positive, 0 = negative, ref product labeling
  DILI potential (based on labeling): 1
[8]; in vivo
  Labeling for DILI: BBW: fatal DILI
[9]; 1XCmax
  MMP measured by Rhodamine 123 at 1XCmax: 0
[9]; 2.5XCmax
  MMP measured by Rhodamine 123 at 2.5XCmax: 0
[9]; 5XCmax
  MMP measured by Rhodamine 123 at 5XCmax: 0
[9]; 10XCmax
  MMP measured by Rhodamine 123 at 10XCmax: 0
[9]; 20XCmax
  MMP measured by Rhodamine 123 at 20XCmax: 0
[9]; 30XCmax
  MMP measured by Rhodamine 123 at 30XCmax: 0
[9]; 50XCmax
  MMP measured by Rhodamine 123 at 50XCmax: 0
[9]; 100XCmax
  MMP measured by Rhodamine 123 at 100XCmax: 0

Source: paper PMC5515969, “Effects of 31 FDA approved small-molecule kinase inhibitors on isolated rat liver mitochondria” (Archives of Toxicology, 2016)
